Several values for one entry are separate records, joined by “and”; a condition that tells them apart may be missing. Equal values may be shown once.
Tests used:
[1] = lead, mercury and arsenic; numerous animal studies; cited from earlier work
[2] = calcium, magnesium, manganese, iron and zinc; cited from earlier work
[3] = system: T4 lymphocytes (CEM cell line); test: Toxicity control: growth inhibition of uninfected T4 lymphocytes (CEM cell line), XTT; conditions: for Uninfected response: uninfected CEM cells, vs uninfected untreated control, 6 days, 8640 min
Method: (§1) FIGS. 1-4 are plots of the log10 of the meso-2,3 dimercaptosuccinic acid concentrations (as moles/L or Molar) against the measured test values expressed as a percentage of the uninfected, untreated control values.
(§2) 1. Dimercaptosuccinic acid was dissolved in dimethyl sulfoxide (unless otherwise instructed) then diluted 1:100 in cell culture medium before preparing serial half-log10 dilutions. T4 lymphocytes (CEM cell line) were added and after a brief interval HIV-1 is added, resulting in a 1:200 final dilution of the compound. Uninfected cells with the compound serve as a toxicity control, and infected and uninfected cells without the compound serve as basic controls.
(§3) 2. The cultures were incubated at 37° in a 5% carbon dioxide atmosphere for 6 days.
(§4) 3. The tetrazolium salt, XTT, was added to all wells, and cultures were incubated to allow formazan color development by viable cells.
(§5) 4. Individual wells were analyzed spectrophotometrically to quantitate formazan production, and in addition were viewed microscopically for detection of viable cells and confirmation of protective activity.
(§6) 5. Drug-treated virus-infected cells were compared with drug-treated noninfected cells and with other appropriate controls (untreated infected and untreated noninfected cells, drug-containing wells without cells, etc.) on the same plate.

HIV-1 = test: microbe, parasite or virus in culture
From the text: as §1
The procedure used to test dimercaptosuccinic acid's activity against Human Immunodeficiency Virus (HIV) is the assay developed by Owen S. Weislow et al. described in "Journal of the National Cancer Institute," Vol. 81, No. 8, April 19, 1989 which is hereby incorporated herein by reference. The assay basically involves the killing of T4 lymphocytes by HIV. Small amounts of HIV are added to cells, and a complete cycle of virus reproduction is necessary to obtain the required cell killing. Agents that interact with virions, cells, or virus gene-products to interfere with viral activities will protect cells from cytolysis. All tests are compared with at least one positive (e.g., AZT-treated) control done at the same time under identical conditions.
as §2, §3, §4, §5, §6
6. The data was reviewed in comparison with four other tests done at the same time and a determination about activity was made.

## O=C(O)[C@@H](S)[C@@H](S)C(=O)O [dimercaptosuccinic acid, meso-2,3 dimercaptosuccinic acid]
[1]
  Heavy metal chelating effect: effective heavy metal chelating agent for lead, mercury and arsenic
[2]
  Effect on excretion of essential minerals: not to increase the excretion of essential minerals
[3]; 1.40 × 10^-4 Molar, 140 µM, 140 µM
  Uninfected response: 80.02% of Control and 81.43% of Control and 107.87% of Control and 105.07% of Control
[3]; 1.40 × 10^-5 Molar, 14 µM, 14 µM
  Uninfected response: 74.62% of Control and 87.58% of Control and 118.28% of Control and 102.83% of Control
[3]; 4.30 × 10^-4 Molar, 430 µM, 430 µM
  Uninfected response: 106.57% of Control and 107.46% of Control and 124.09% of Control and 128.49% of Control
[3]; 4.40 × 10^-5 Molar, 44 µM, 44 µM
  Uninfected response: 84.59% of Control and 85.17% of Control and 125.62% of Control and 102.99% of Control
[3]; Homo sapiens, CCRF-CEM, 144 h, read-out: 50% inhibitory concentration (IC50)
  IC50: > 1.4 mM
HIV-1; 1.40 × 10^-4 Molar, HIV-1 infected CEM cells, vs uninfected untreated control, 6 days, 140 µM, 8640 min, 140 µM
  Infected response: 84.32% of Control and 103.60% of Control and 95.01% of Control
HIV-1; HIV-1, CEM cells, 6 days, Tables I-IV
  Conclusion (determination of activity): CONFIRMED ACTIVE
HIV-1; Human immunodeficiency virus 1, CCRF-CEM, in Homo sapiens, 144 h, read-out: Infected response, 1.40 × 10^-4 Molar, HIV-1 infected CEM cells, vs uninfected untreated control, 6 days
  viability at 140 µM: 94.3%
HIV-1; drawn from data of Tables I-IV
  Overall conclusion on antiretroviral effectiveness: effective as a treatment for retroviruses in warm blooded animals

— patent US5464869A, “Use of dimercaptan acids, salts and metabolites thereof as antiretroviral treatments” (Ethicon, Inc., priority 1995, dated 1995)
